Data as given in a melting point compilation (Tetko et al.; mined from patent text by program, amines drawn as free bases though some values may be those of a salt).

Row | Structure (SMILES) | melting point
1 | Cc1ccc2nc(-c3cccc(C(=O)O)c3)oc2c1 | 239 to 241 °C
2 | CC(C#N)(c1ccc(Cl)cc1)c1ccc(-n2ncc(=O)[nH]c2=O)cc1Cl (stereo not given) | 235 °C
3 | COc1ccc2cc(C#CC(C)N(O)C(N)=O)ccc2c1 (stereo not given) | 181 to 183 °C
4 | COc1ccc(C2(c3ccc(OC)cc3)Nc3ccc(-c4ccc5[nH]cnc5c4)cc3N2)cc1 | 267 to 270 °C
5 | CN(C)CC=NC(=O)c1cnn2c(-c3cccnc3)ccnc12 | 124 to 127 °C
6 | CN1CC=C(c2c[nH]c3ccc(C[C@H]4COC(=O)N4)cc23)CC1 | 225 to 227 °C
7 | Fc1ccccc1N1CCN(Cc2cn3cc(Cl)ccc3n2)CC1 | 107 to 108 °C
8 | CCCCCCCCC#CCC#CCC#CCS(=O)(=O)CC(=O)OC | 69 °C
9 | N#CC1=C(c2ccncc2)Nc2n[nH]cc2C1c1cccc2nonc12 (stereo not given) | 236 °C
10 | COc1cccc2c1Cc1c(OC)cccc1C2(CCO)CCO | 193 to 196 °C
11 | CCOC(=O)CCCCCCCCOC1OC(CO)C(O)C(O)C1NC(C)=O (stereo not given) | 112 °C
12 | FC(F)Oc1n[nH]cc1-c1ccccc1 | 125 °C
13 | COc1ccc2nc3ccc(C(=O)N(C)C)cn3c(=O)c2c1 | 190 to 196 °C
14 | CC(=O)Oc1ccc(C=CC(=O)C=Cc2ccc(OC(C)=O)c(OC(C)=O)c2)cc1OC(C)=O | 70 to 72 °C
15 | COC(=O)c1cccc(OCC(=O)NN=C2C(=O)Nc3ccc(I)cc32)c1 | 237 °C
16 | C=C(C(=O)c1ccc(Cl)cc1)c1ccc(Cl)cc1Cl | 90 to 93 °C
17 | CC(=O)C(=[N+]=[N-])C(=O)c1ccccn1 | 69 to 74 °C
18 | CC(=O)NC(C)c1cc(S(N)(=O)=O)sc1S(C)(=O)=O (stereo not given) | 114 to 117 °C
19 | Nc1ccc(C#Cc2ccc(C#Cc3ccccc3)cc2[N+](=O)[O-])cc1 | 166 to 168 °C
20 | COC(=O)C1CC2c3cccc4[nH]cc(c34)CC2N(C(=O)C2CC2)C1 (stereo not given) | 276 to 278 °C
21 | CCOC(C)n1cnc(-c2ccc(F)cc2)c1-c1ccc(F)cc1 (stereo not given) | 105 to 107 °C

Row | Structure (SMILES) | melting point
22 | O=C(Nc1ccc(N(CCCl)CCCl)cc1)Nc1cc(CO)cc(Nc2c3ccccc3nc3ccccc23)c1 | 173 to 175 °C
23 | c1ccc2c(CCc3ccncc3)c[nH]c2c1 | 154 to 158 °C
24 | CC1(C)OC(=O)Nc2ccc(-c3cccc(CC#N)n3)cc21 | 210 to 212 °C
25 | COc1ccc(Nc2c([N+](=O)[O-])ccc(Cl)c2C(=O)O)cc1Cl | 222 to 228 °C
26 | CC1(c2ccc(C#N)cc2)C(=O)N(Cc2ccc(F)cc2)Cc2cncn21 (stereo not given) | 66 to 70 °C
27 | Cc1cc(-c2ccccc2)c(C)cc1-c1ccccc1 | 301 to 304 °C
28 | O=c1c2ccc3[nH]ccc3c2ccn1Cc1ccc(F)cc1 | 171 to 173 °C
29 | CC(=O)OC1CCC2(C)C(CCC3C4CCC(C(C)CC(=O)C(=O)N5CCOCC5)C4(C)CC(=O)C32)C1 (stereo not given) | 122 to 123 °C
30 | COC(OC)c1cnc(-c2ccccc2)nc1N | 116 to 118 °C
31 | O=C(O)Cc1ccc2onc(-c3ccc(Cl)cc3)c2c1 | 189 °C
32 | COc1cccc2sc(C(N)=O)c(N)c12 | 151 to 153 °C
33 | CCCCSc1nnc(-c2ccc(N)cc2)s1 | 91 °C
34 | COc1cc(COc2nn(-c3ccccc3)cc2/C=C/S(C)(=O)=O)ccc1OCc1nc(-c2ccco2)oc1C | 152 to 153 °C
35 | CC12CCC3C(CC=C4C=C(N5CCCC5)CCC43C)C1CCC2=O (stereo not given) | 217 to 220 °C
36 | CN1C[C@H](CN2CCC(O)(c3ccc(Cl)cc3)CC2)C=C2c3cccc4c3c(cn4C)C[C@H]21 | 101 to 107 °C
37 | Cc1cn(-c2cccc(C(=O)CC(=O)Nc3cc(-c4ccccc4F)ccc3NC(=O)OC(C)(C)C)c2)c(C)n1 | 145 °C
38 | O=C(COc1ccc(Cl)cc1)N[C@@H](Cc1ccccc1)C(=O)CSCc1ccco1 | 95 to 98 °C
39 | CN1CC2c3ccc(C=O)n3Cc3ccccc3N2C(=O)C1=O (stereo not given) | 300 to 302 °C
40 | CN1C(C(=O)Nc2ccc(O)c(=O)cc2)=C(O)c2ccccc2S1(=O)=O | 258 to 265 °C
41 | CC(C)C[C@H](CC(N)=O)CC(=O)O | 132 to 135 °C
42 | Cc1cccc(C(=O)Nc2ccc(C(=O)N3Cc4ccccc4Cc4ccccc43)cc2)c1C | 138 to 142 °C

Second part, the compound after the results:

Row | melting point | Structure (SMILES)
43 | 172 to 173 °C | O=C(COc1cc(C(=O)N2CCOCC2)ccc1[N+](=O)[O-])c1ccccc1
44 | 127 °C | c1cn2ccnc2c(N2CCOCC2)n1
45 | 140 °C | CN(C)C=Nc1c(S(=O)C(F)(F)F)c(-c2ncon2)nn1-c1c(Cl)cc(C(F)(F)F)cc1Cl (stereo not given)
46 | 79.5 to 86 °C | CCN(CC)CCNC(=O)c1cccc2c(=O)c(C)c(-c3cccc(C)c3)oc12
47 | 269 to 271 °C | CN1CCC(c2[nH]c(=O)c3ccccc3c2-c2ccc(F)cc2)CC1
48 | 105 to 106 °C | CCOC(=O)C1=C(C)NC(C)=C(C(=O)OCC)C1c1ccccc1/C=C(\C)C(=O)OCC
49 | 95 to 95.5 °C | CC1CCN(c2nn3ccnc3c3c2CCCC3)CC1
50 | 135 to 138 °C | Cn1cc(C2=C(c3cn(CCCNS(C)(=O)=O)c4ccccc34)C(=O)NC2=O)c2ccccc21
51 | 223 to 225 °C | c1cncc(CCCN2CCc3[nH]c4ccccc4c3C2)c1
52 | 223 to 224 °C | CN(C)CCn1c(=O)c2cccc(N)c2c2cnc3cc4c(cc3c21)OCO4
53 | 163 to 166 °C | O=C(Nc1cccc(Cc2nnn[nH]2)c1)C(F)(F)C(F)(F)C(F)(F)C(F)(F)C(F)(F)C(F)(F)C(F)(F)F
54 | 135 to 136 °C | CCCCOc1ccc(OCCN2CCN(c3cc(Cl)nnc3Cl)CC2)cc1
55 | 170 °C | CCOC(=O)CNC(=O)C1=C(C(=O)Nc2ccc(Cl)cc2F)CCCC1
56 | 86 to 88 °C | Fc1cc(Cl)ccc1NC(=S)C1CCCC=C1N1CCOCC1 (stereo not given)
57 | 238 to 240 °C | CC(C)(C)c1ccc(C(=O)NCc2ccc3c(c2)CN(C2CCC(=O)NC2=O)C3=O)cc1 (stereo not given)
58 | 48.5 to 50 °C | CNc1cc(C(F)(F)F)no1
59 | 150 to 152 °C | CCC(CC)(CCC#N)C(NC(=O)c1ccc(Cl)cc1)NC(=NC#N)Nc1cccnc1 (stereo not given)
60 | 141 to 142 °C | CCOC(=O)C(=CNc1ccc(Br)cn1)[N+](=O)[O-]
61 | 177 to 178 °C | COc1ccc2c(c1)c(CC(=O)NCC(C)(C)S)c(C)n2C(=O)c1ccc(Cl)cc1
62 | 98 to 99 °C | Cc1ccc([N+](=O)[O-])cc1C(=O)N(C)C

Row | melting point | Structure (SMILES)
63 | 141 °C | O[C@H]1CCC[C@H]1Oc1cccc2onc(OCC3CCN(CC4(O)CCOCC4)CC3)c12 (relative stereo)
64 | 176 to 177 °C | O=C1c2ccccc2-c2c1c1ccccc1c(=O)n2CCCCNS(=O)(=O)c1ccc(Br)cc1
65 | 112 to 114 °C | CC(C)(C)CCn1c(=O)c(=NNc2ccccc2)c(=O)n(-c2ccccc2F)c2ccccc21
66 | 155 to 158 °C | NC(=O)c1cc(OCCNCC(O)COc2ccc(-c3nc(C(F)(F)F)c[nH]3)cc2)ccc1O (stereo not given)
67 | 248 °C | O=c1[nH]c2ccccc2n1CCCN1CCC(n2c(=S)[nH]c3ccccc32)CC1
68 | 160 °C | O=c1[nH]c2ccc(Cl)cc2n1CCO
69 | 335 to 337 °C | O=c1c2c(c1=O)Nc1c(Cl)cc(C(F)(F)F)cc1N2
70 | 178 to 179 °C | Nc1c2c(nc3ccccc13)CCC=C2
71 | 152 to 154 °C | CN1CCC(=C2c3ccccc3CCc3ccc(C#N)cc32)CC1
72 | 81 to 83 °C | CCCCCS(=O)(=O)NC(=O)/C=C/c1ccc(OCCOCCOC)cc1Oc1ncc(C(F)(F)F)cc1Cl
73 | 111 to 113 °C | CC(Oc1ncn(-c2cccc(Br)c2)n1)C(=O)N1CCCC1 (stereo not given)
74 | 203 °C | COc1ccc2c(c1)CC(NCC(=O)O)CC2 (stereo not given)
75 | 118 to 120 °C | CCCCc1ncc(CC(Cc2ccccc2)C(=O)O)n1Cc1ccccc1Cl (stereo not given)
76 | 155 to 156 °C | O=C1CCOc2cc(OCc3ccccc3)c(F)cc21
77 | 93 to 95 °C | CC(=O)N1CCN(CC#CCn2cncc2C)C1=O
78 | 117 to 119 °C | O=C(O)c1cnc2n(c1=O)CCCCC2
79 | 172 to 174 °C | CC(C)CNCc1cc2cc(NC(=O)c3ccc(C#CC4(O)CC4)cc3)ccc2n1C
80 | 174 to 176 °C | O=C1NCCCN1C1CCN(CC[C@H](c2ccc(Cl)c(Cl)c2)[C@@H](O)c2ccnn2-c2ccccc2)CC1 (racemic)
81 | 150 to 152 °C | CC1=C(C(O)(c2ccc(C)cc2)C2SCSCS2)CN(C)O1 (stereo not given)
82 | 125 to 126 °C | CC(=O)NCCc1cccc2ccc(O)cc12

Row | melting point | Structure (SMILES)
83 | 228 to 230 °C | C[C@@H]1S[C@@H](C(=O)Nc2ccc(CN3C(=O)CN(C)C3=O)cc2)Cc2cc3c(cc2C1=O)OCO3
84 | 140 to 141 °C | O=CNN(C1=NCCS1)c1ccccc1
85 | > 240 °C | O=C(C1CCNCC1)N1CCN(c2cccc3[nH]ccc23)CC1
86 | 243 to 244 °C | O=C(O)c1ccc2c(c1)nc(-c1ccc(OCc3cc(Cl)ccc3-c3ccc(Cl)cc3)cc1)n2C1CCCCC1
87 | 160 to 163 °C | COc1ccccc1N1CCN(CC(C(=O)NC(C)(C)C)c2ccccc2)CC1 (stereo not given)
88 | 137 to 138 °C | O=C1C(c2cccc(C(F)(F)F)c2Cl)=NN(CCCCC(F)(F)F)C2C=C(Cl)C=CC12 (stereo not given)
89 | 49.5 to 50.5 °C | Cc1ccc(CN(C(=O)C2CC2)c2nc(C)no2)cc1
90 | 190 to 192 °C | OC(Cc1ccnc2ccccc12)C(Cl)(Cl)Cl (stereo not given)
91 | 89 to 90 °C | COc1ccc2c(c1)C(=NOCCCN)c1c-2c(N2CCNCC2)nc2ccccc12
92 | 40 to 43 °C | OCCCOc1ccc(Cl)c(Cl)c1
93 | 87 to 89 °C | Cc1cn(C2COC(CO)C(O)C2)c(=O)[nH]c1=O (stereo not given)
94 | 217 to 219 °C | CCNCC1CCN(c2c(F)cc3c(=O)c(C(=O)O)cn(C4CC4)c3c2OC)C1 (stereo not given)
95 | 110 to 112 °C | CCOC(=O)c1ccc(N)cc1F
96 | 61 to 62 °C | O=C(NCCCC1CCC2=C1CC=CC2)C(F)(F)F (stereo not given)
97 | 72 to 74 °C | Cc1ccc(CNc2nc(Nc3cccc(C(F)(F)F)c3)nc(OCC(F)(F)F)n2)o1
98 | 191 to 192 °C | CCCSc1sc(C(N)=O)c2c1-c1nn(S(C)(=O)=O)cc1CC2
99 | 230 to 232 °C | CC(C)(C)C(=O)c1c[nH]c2ncc(-c3cc(OCCS(C)(=O)=O)cc(N4CCCC4)c3)nc12
100 | 128 to 130 °C | O=C(CSc1ccc(C(F)(F)F)cc1C(=O)O)c1ccccc1
